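Where inhibition never reached the appropriate level, the endpoint shown equals the highest concentration tested. Otherwise, values were interpolated linearly from a five-concentration, 48-hour dose response in 96-well plates. Here, GI50 denotes the concentration required for 50% inhibition of growth.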 Activity calls are given as the source filed them. Cut-off read from the data, not from the text of the source: active = GI50 up to about 1.1 µM and inactive = higher.
Experiments:
Test in all cases: DTP human tumour cell line panel, 48 h
DU-145 = system: DU-145
NCI-H522 = system: NCI-H522
SK-MEL-28 = system: SK-MEL-28
NCI-H23 = system: NCI-H23
RPMI-8226 = system: RPMI-8226
NCI/ADR-RES = system: NCI/ADR-RES
SN12C = system: SN12C
SF-295 = system: SF-295
RXF 393 = system: RXF 393
SK-MEL-5 = system: SK-MEL-5
SR = system: SR
CCRF-CEM = system: CCRF-CEM
M14 = system: M14
HCT-15 = system: HCT-15
NCI-H226 = system: NCI-H226
A498 = system: A498
HT-29 = system: HT-29
LOX IMVI = system: LOX IMVI
SNB-75 = system: SNB-75
K562 = system: K562

What does the source list for `Cc1nc2ccc(F)cc2c2c1CCO2`?
GI50 (DU-145): > 100 µM (inactive); GI50 (NCI-H522): > 100 µM (inactive); GI50 (SK-MEL-28): > 100 µM (inactive); GI50 (NCI-H23): > 100 µM (inactive); GI50 (RPMI-8226): 80 µM (inactive); GI50 (NCI/ADR-RES): > 100 µM (inactive); GI50 (SN12C): 30.3 µM (inactive); GI50 (SF-295): > 100 µM (inactive); GI50 (RXF 393): 36.8 µM (inactive); GI50 (SK-MEL-5): 43.5 µM (inactive); GI50 (SR): > 100 µM (inactive); GI50 (CCRF-CEM): > 100 µM (inactive); GI50 (M14): 99.1 µM (inactive); GI50 (HCT-15): > 100 µM; GI50 (NCI-H226): > 100 µM (inactive); GI50 (A498): > 100 µM (inactive); GI50 (HT-29): 82.6 µM (inactive); GI50 (LOX IMVI): > 100 µM (inactive); GI50 (SNB-75): > 100 µM (inactive); GI50 (K562): 41.5 µM (inactive)

Which GI50 (DU-145) does the source give for `C/C=C(/C)C(=O)OC1CC(C)[C@H]2CC(=O)C(C)=C2CC1C(C)(C)OC(C)=O` (stereo not given in full) here?
The GI50 was 81.1 µM (inactive).

And the GI50 (NCI-H522)?
The GI50 was 19.5 µM (inactive).

And the GI50 (SK-MEL-28)?
The GI50 was 31 µM (inactive).

What about the GI50 (NCI-H23) of the same molecule?
Its GI50 is 74.8 µM (inactive).

And the GI50 (RPMI-8226)?
The GI50 was 22.9 µM (inactive).

And the GI50 (NCI/ADR-RES)?
The GI50 was 22.8 µM (inactive).

What about the GI50 (SN12C) of the same molecule?
The GI50 was 42 µM (inactive).

What about the GI50 (SF-295) of the same molecule?
Its GI50 is 24.7 µM (inactive).

And the GI50 (RXF 393)?
The GI50 was 22.5 µM (inactive).

What about the GI50 (SK-MEL-5) of the same molecule?
The GI50 was 15.9 µM (inactive).

What about the GI50 (SR) of the same molecule?
Its GI50 is 23 µM (inactive).

What about the GI50 (CCRF-CEM) of the same molecule?
The GI50 was 25.6 µM (inactive).

What about the GI50 (M14) of the same molecule?
The GI50 was 29.2 µM (inactive).

And the GI50 (HCT-15)?
The GI50 was 19.7 µM.

What about the GI50 (NCI-H226) of the same molecule?
Its GI50 is 37.4 µM (inactive).

What about the GI50 (A498) of the same molecule?
Its GI50 is 20.2 µM (inactive).

What about the GI50 (HT-29) of the same molecule?
Its GI50 is 35.5 µM (inactive).

And the GI50 (LOX IMVI)?
The GI50 was 17.9 µM (inactive).

And the GI50 (SNB-75)?
The GI50 was 44.4 µM (inactive).

And the GI50 (K562)?
Its GI50 is 32.6 µM (inactive).

`CCCCCCCCCCCCCCCCCCNc1ccn(C2OC(COP(=O)(O)OCC3OC(n4ccc(N)nc4=O)C(O)C3O)C(O)C2O)c(=O)n1` (stereo not given) was tested. Which GI50 (DU-145) did it give?
The GI50 was 44.2 µM (inactive).

What about the GI50 (NCI-H522) of the same molecule?
Its GI50 is > 37.8 µM (inactive).

And the GI50 (SK-MEL-28)?
Its GI50 is > 92 µM (inactive).

What about the GI50 (NCI-H23) of the same molecule?
The GI50 was 27.5 µM (inactive).

What about the GI50 (RPMI-8226) of the same molecule?
The GI50 was > 100 µM (inactive).

What about the GI50 (NCI/ADR-RES) of the same molecule?
The GI50 was 47.1 µM (inactive).

And the GI50 (SN12C)?
Its GI50 is 65 µM (inactive).

And the GI50 (SF-295)?
Its GI50 is > 100 µM (inactive).

What about the GI50 (RXF 393) of the same molecule?
The GI50 was > 100 µM (inactive).

What about the GI50 (SK-MEL-5) of the same molecule?
Its GI50 is > 100 µM (inactive).

And the GI50 (SR)?
Its GI50 is > 37.6 µM (inactive).

What about the GI50 (CCRF-CEM) of the same molecule?
Its GI50 is 16.1 µM (inactive).

And the GI50 (M14)?
Its GI50 is 32 µM (inactive).

What about the GI50 (HCT-15) of the same molecule?
Its GI50 is 55.6 µM.

And the GI50 (NCI-H226)?
The GI50 was > 100 µM (inactive).

What about the GI50 (A498) of the same molecule?
The GI50 was > 100 µM (inactive).

And the GI50 (HT-29)?
Its GI50 is 37.7 µM (inactive).

What about the GI50 (LOX IMVI) of the same molecule?
The GI50 was 16.5 µM (inactive).

What about the GI50 (SNB-75) of the same molecule?
The GI50 was > 100 µM (inactive).

And the GI50 (K562)?
Its GI50 is 65.8 µM (inactive).

How did the GI50 (DU-145) turn out when `C=C1c2nc3ccccc3n2C=C(c2ccc(OC)cc2)N1c1ccccc1` was run?
The GI50 was 28.6 µM (inactive).

And the GI50 (NCI-H522)?
Its GI50 is 2.21 µM (inactive).

What about the GI50 (SK-MEL-28) of the same molecule?
The GI50 was 29.6 µM (inactive).

What about the GI50 (NCI-H23) of the same molecule?
The GI50 was 11.7 µM (inactive).

And the GI50 (RPMI-8226)?
The GI50 was 3.65 µM (inactive).

And the GI50 (NCI/ADR-RES)?
The GI50 was 2.34 µM (inactive).

And the GI50 (SN12C)?
Its GI50 is 24 µM (inactive).

What about the GI50 (SF-295) of the same molecule?
Its GI50 is 3.44 µM (inactive).

And the GI50 (RXF 393)?
The GI50 was 6.71 µM (inactive).

What about the GI50 (SK-MEL-5) of the same molecule?
The GI50 was 3.99 µM (inactive).

What about the GI50 (SR) of the same molecule?
Its GI50 is 1.96 µM (inactive).

What about the GI50 (CCRF-CEM) of the same molecule?
Its GI50 is 3.66 µM (inactive).

And the GI50 (M14)?
Its GI50 is 4.43 µM (inactive).

And the GI50 (HCT-15)?
Its GI50 is 3.1 µM.

What about the GI50 (NCI-H226) of the same molecule?
The GI50 was 4.12 µM (inactive).

What about the GI50 (A498) of the same molecule?
The GI50 was 31 µM (inactive).

What about the GI50 (HT-29) of the same molecule?
The GI50 was 9.68 µM (inactive).

What about the GI50 (LOX IMVI) of the same molecule?
The GI50 was 7.36 µM (inactive).

What about the GI50 (SNB-75) of the same molecule?
Its GI50 is 4.99 µM (inactive).

And the GI50 (K562)?
The GI50 was 2.62 µM (inactive).

How did the GI50 (DU-145) turn out when `CSS(C)(=O)=O` was run?
The GI50 was 21.5 µM (inactive).

What about the GI50 (NCI-H522) of the same molecule?
Its GI50 is 18.2 µM (inactive).

And the GI50 (SK-MEL-28)?
The GI50 was 21.6 µM (inactive).

And the GI50 (NCI-H23)?
The GI50 was 19.9 µM (inactive).

What about the GI50 (RPMI-8226) of the same molecule?
Its GI50 is 1.95 µM (inactive).

What about the GI50 (NCI/ADR-RES) of the same molecule?
Its GI50 is 58.9 µM (inactive).

And the GI50 (SN12C)?
The GI50 was 21.5 µM (inactive).

And the GI50 (SF-295)?
Its GI50 is 23.1 µM (inactive).

What about the GI50 (RXF 393) of the same molecule?
The GI50 was 26.5 µM (inactive).

And the GI50 (SK-MEL-5)?
Its GI50 is 61.5 µM (inactive).

What about the GI50 (SR) of the same molecule?
The GI50 was 15.3 µM (inactive).

What about the GI50 (CCRF-CEM) of the same molecule?
Its GI50 is < 0.01 µM (active).

What about the GI50 (M14) of the same molecule?
Its GI50 is 26.6 µM (inactive).

And the GI50 (HCT-15)?
The GI50 was 24.9 µM.

What about the GI50 (NCI-H226) of the same molecule?
Its GI50 is 21.4 µM (inactive).

And the GI50 (A498)?
Its GI50 is > 100 µM (inactive).

What about the GI50 (HT-29) of the same molecule?
Its GI50 is 31 µM (inactive).

And the GI50 (LOX IMVI)?
Its GI50 is 60.1 µM (inactive).

And the GI50 (SNB-75)?
The GI50 was 32.3 µM (inactive).

What about the GI50 (K562) of the same molecule?
The GI50 was 31.3 µM (inactive).

From ChEMBL document CHEMBL1201862, “PubChem BioAssay data set” (2004)
